21 compounds from ChEMBL document CHEMBL1136277, “(R)-3-(N-methylpyrrolidin-2-ylmethyl)-5-(1,2,3,6-tetrahydropyridin-4-yl)-1H-indole derivatives as high affinity h5-HT1B/1D ligands” (Bioorg Med Chem Lett, 2003) can be followed below.

Test [1] has as its target T1, 5-hydroxytryptamine receptor 1B (Homo sapiens, UniProt P28222). Briefly: Selectivity ratio against cloned human 5-HT1B receptor to that of h5-HT1D receptor.
Test [2] deals with T1, 5-hydroxytryptamine receptor 1B. As to the kind of experiment: Binding affinity towards cloned human 5-hydroxytryptamine 1B receptor.
For test [3], the target named is 5-hydroxytryptamine receptor 1D (Homo sapiens, UniProt P28221). Briefly: Binding affinity towards cloned human 5-hydroxytryptamine 1D receptor.
Chain of 5-hydroxytryptamine receptor 1D (P28221 whole entry): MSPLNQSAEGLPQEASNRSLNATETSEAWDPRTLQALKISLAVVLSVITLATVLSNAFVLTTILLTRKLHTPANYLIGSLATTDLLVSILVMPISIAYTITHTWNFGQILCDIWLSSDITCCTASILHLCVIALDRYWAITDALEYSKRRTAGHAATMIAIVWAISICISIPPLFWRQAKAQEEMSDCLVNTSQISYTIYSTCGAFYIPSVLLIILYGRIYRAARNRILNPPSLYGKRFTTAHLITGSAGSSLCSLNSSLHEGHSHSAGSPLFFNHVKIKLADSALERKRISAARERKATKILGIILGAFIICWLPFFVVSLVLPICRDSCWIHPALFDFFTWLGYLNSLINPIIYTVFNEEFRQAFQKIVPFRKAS

T1 sequence (P28222 whole entry): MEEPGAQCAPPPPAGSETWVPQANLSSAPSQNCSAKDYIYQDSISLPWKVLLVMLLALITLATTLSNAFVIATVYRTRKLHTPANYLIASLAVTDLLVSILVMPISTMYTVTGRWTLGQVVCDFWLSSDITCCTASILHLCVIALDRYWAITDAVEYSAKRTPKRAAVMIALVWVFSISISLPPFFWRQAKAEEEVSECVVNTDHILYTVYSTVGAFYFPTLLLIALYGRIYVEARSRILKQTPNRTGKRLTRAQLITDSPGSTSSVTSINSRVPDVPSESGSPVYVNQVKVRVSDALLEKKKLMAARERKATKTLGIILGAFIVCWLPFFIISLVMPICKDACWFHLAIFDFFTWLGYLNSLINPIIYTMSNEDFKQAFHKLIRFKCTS

A word on the Ki: it is a measure of affinity in units of concentration, obtained from inhibition or displacement. On to `CN1CCC[C@@H]1Cc1c[nH]c2ccc(C3=CCN(C(=O)NC45C[C@H]6C[C@@H](C4)C[C@@H](C5)C6)CC3)cc12`, for which the Selectivity in test [1] was determined as 2.8. Also, the Ki stood at 11 nM in test [2] and 4 nM in test [3].

In the case of `CN1CCC[C@@H]1Cc1c[nH]c2ccc(C3=CCN(/C(S)=N/c4ccc(Cl)cc4)CC3)cc12`, the Selectivity in test [1] came out at 2.7. Moreover, the Ki is 1.5 nM in test [2] and 0.56 nM in test [3].

For the compound `CN1CCC[C@@H]1Cc1c[nH]c2ccc(C3=CCN(/C(S)=N/C45C[C@H]6C[C@@H](C4)C[C@@H](C5)C6)CC3)cc12`, the Selectivity in test [1] came to 7. Also, the Ki in test [2] came to 39 nM; in test [3], 5.6 nM.

On to `Cc1ccc(NC(=O)N2CC=C(c3ccc4[nH]cc(C[C@H]5CCCN5C)c4c3)CC2)cc1`, for which, in test [1], the Selectivity was determined as 9.7. The Ki in test [2] stood at 3 nM; in test [3], 0.31 nM.

`CN1CCC[C@@H]1Cc1c[nH]c2ccc(C3=CCN(C(=O)Nc4cccc5ccccc45)CC3)cc12`: the Selectivity in test [1] came to 8.4. Also, the Ki amounted to 3.8 nM in test [2] and 0.45 nM in test [3].

In the case of `Cc1ccc(/N=C(\S)N2CC=C(c3ccc4[nH]cc(C[C@H]5CCCN5C)c4c3)CC2)cc1`, the Selectivity in test [1] stood at 3.9.

Turning to `CN1CCC[C@@H]1Cc1c[nH]c2ccc(C3=CCN(/C(S)=N/c4cccc5ccccc45)CC3)cc12`, in test [1], the Selectivity was 4.6. The Ki in test [2] amounted to 3.2 nM; in test [3], 0.7 nM.

Regarding `CN(C)CCc1c[nH]c2ccc(C3=CCN(C)CC3)cc12`, the Ki in test [2] stood at 610 nM; in test [3], 8 nM.

As to `CN1CCC[C@@H]1Cc1c[nH]c2ccc(C3=CCN(C(=S)Nc4ccccc4)CC3)cc12`, the values for the Ki in test [2] and in test [3] were 5.8 nM and 0.68 nM, respectively.

On to `COc1ccc(S(=O)(=O)N2CC=C(c3ccc4[nH]cc(C[C@H]5CCCN5C)c4c3)CC2)cc1`, for which, in test [1], the Selectivity stood at 19. The Ki came out at 14 nM in test [2] and 0.76 nM in test [3].

`CN1CCC[C@@H]1Cc1c[nH]c2ccc(C3=CCN(C(=S)NC4CCCCC4)CC3)cc12`: the Ki in test [2] stood at 13 nM; in test [3], 2 nM.

For `COc1ccc(NC(=S)N2CC=C(c3ccc4[nH]cc(C[C@H]5CCCN5C)c4c3)CC2)cc1`, the Selectivity in test [1] was determined as 5.2. Further, the Ki in test [2] stood at 2.4 nM; in test [3] it was 0.46 nM.

Take `Cc1ccc(S(=O)(=O)N2CC=C(c3ccc4[nH]cc(C[C@H]5CCCN5C)c4c3)CC2)cc1`: in test [1], the Selectivity came to 21. Also, the values for the Ki in test [2] and in test [3] were 17 nM and 0.8 nM, respectively.

Consider `CN1CCC[C@@H]1Cc1c[nH]c2ccc(C3=CCN(/C(S)=N/c4ccccc4)CC3)cc12`, for which the Selectivity in test [1] was determined as 8.5.

On to `CN1CCC[C@@H]1Cc1c[nH]c2ccc(C3=CCN(C(=O)NC4CCCCC4)CC3)cc12`, for which the Selectivity in test [1] was 4.6. Further, the inhibition constant (Ki) in test [2] was determined as 14 nM; in test [3] it was 3 nM.

With `COc1ccc(NC(=O)N2CC=C(c3ccc4[nH]cc(C[C@H]5CCCN5C)c4c3)CC2)cc1`, the Selectivity in test [1] was determined as 10. For the same compound, the values for the Ki in test [2] and in test [3] were 4.2 nM and 0.42 nM, respectively.

In the case of `CN1CCC[C@@H]1Cc1c[nH]c2ccc(C3=CCN(C(=O)Nc4ccc(Cl)cc4)CC3)cc12`, the Selectivity in test [1] came out at 10. The results for the Ki in test [2] and in test [3] were 3.8 nM and 0.38 nM, respectively.

Regarding `CN1CCC[C@@H]1Cc1c[nH]c2ccc(C3=CCN(C(=O)Nc4ccccc4)CC3)cc12`, the Selectivity in test [1] was 11. Moreover, the Ki in test [2] is 4.8 nM; in test [3], 0.45 nM.

Consider `Cc1ccc(NC(=S)N2CC=C(c3ccc4[nH]cc(C[C@H]5CCCN5C)c4c3)CC2)cc1`, for which the Ki turned out to be 1.5 nM in test [2] and 0.38 nM in test [3].

With `CN1CCC[C@@H]1Cc1c[nH]c2ccc(C3=CCN(S(=O)(=O)c4cccc5ccccc45)CC3)cc12`, the Selectivity in test [1] is 26. The Ki stood at 23 nM in test [2] and 0.88 nM in test [3].

Turning to `CN1CCC[C@@H]1Cc1c[nH]c2ccc(C3=CCN(/C(S)=N/C4CCCCC4)CC3)cc12`, the Selectivity in test [1] was found to be 6.3.
